The values below come from patent US9579334B2, “Iminosugars and methods of treating viral diseases” (Emergent Virology LLC, priority 2009, dated 2017).

One data set concerns Vero cells. As to the kind of experiment: Cytotoxicity towards Vero cells, LDH assay. Type of data set: cell-based, African green monkey. To be noted: for toxicity to the Vero cells: 0.122 up to 500 uM. How it is done:
Procedure. NB-DNJ, NN-DNJ and N7-O-DNJ at concentrations from 0.122 up to 500 uM were tested for cytotoxicity towards Vero cells. Vero cells (Afrika green monkey kidney epithelial cell line) obtained from American Type Culture Collection (ATCC, Manassas, Va.) were plated in cell culture treated 96-well flat bottom plates 24 hr prior to assay. Test were done in modified Eagle medium, supplemented with 2% fetal bovine serum, 2 mM L-glutamine, 100 U/ml penicillin, 100 ug/ml streptomycin, starting at 500 μM compounds, decreasing to 0.122 uM. Cells were cultured at 37° C., 5% CO2 incubator and the plates were assayed by LDH assay (CytoTox96, Promega, Wis.) according to the manufacturer's recommendations for induced cellular damage (release of cytoplasmic enzyme lactate dehydrogenase). OD readings were used to calculate and compare percent cytopathic effect of cells treated with compounds or controls. […] NN-DNJ begins to show toxicity to the cells at concentrations above ˜20 uM.

For a further data set, the system named is Dengue 2 strain S221. As to the kind of experiment: Protection of AG129 mice against Dengue virus (survival). Type of data set: in vivo. How it is done:
FIGS. 10 and 11 A-C show protection of mice against Dengue virus by UV-4 (N9-DNJ). In this model, AG129 mice, which are 129/Sv mice lacking receptors for both alpha/beta interferon and IFN-gamma, are infected with Dengue 2 strain S221 via intravenous injection. The mice die of TNF-a mediated acute/early death 4-5 days after infection, see Shresta, S., et al., J Virol, 2006. 80(20): p. 10208-17. Each experiment group contained 5 mice sex matched and 5-6 weeks old. The mice were injected intravenously via the tail vein with 10^11 genomic equivalents of DENV2 strain S221 30 min after the first N9-DNJ dose was administered orally. The N9-DNJ was administered orally twice daily at 200, 100, 50 and 10 mg/kg. The antiviral compound Ribavirin 100 mg/kg was given subcutaneously once daily and included as a positive control together with a PBS-only group. Animals displaying severe illness during the experiment (as determined by 20% weight loss, extreme lethargy, ruffled coat, or paralysis) were euthanized.

Turning to `CCCOCCCCCCN1C[C@H](O)[C@@H](O)[C@H](O)[C@H]1CO` [N7-O-DNJ, N-(7-Oxadecyl)deoxynojirimycin], the “toxicity to the Vero cells” value with Vero cells is recorded as “non-toxic”.
`CCCCCCCCCN1C[C@H](O)[C@@H](O)[C@H](O)[C@H]1CO` [NN-DNJ, N-Nonyl dexoynojirimycin]: in the data set on Vero cells (Vero cells), the “concentration above which toxicity to the cells begins to show” value was over 20 µM.
For the molecule `CCCCN1C[C@H](O)[C@@H](O)[C@H](O)[C@H]1CO` [NB-DNJ, N-Butyl deoxynojirimycin], the “toxicity to the Vero cells” value in the data set with Vero cells is reported as “non-toxic”.
With `COCCCCCCCCCN1C[C@H](O)[C@@H](O)[C@H](O)[C@H]1CO` [N9-DNJ, N-(9-Methoxynonyl) deoxynojirimycin], the “survival, p vs. PBS” value is 0.034 in the data set with Dengue 2 strain S221 (10 mg/kg orally twice daily) and 0.002 with Dengue 2 strain S221 (100 mg/kg orally twice daily). Also, in the data set with Dengue 2 strain S221 (DENV2 S221 i.v., orally twice daily at 200, 100, 50 and 10 mg/kg, all drug concentrations), the survival result is “statistically significant improvement in survival”.
